“Also recorded” adds a separate entry of the source.
Key:
OPCs = assay: HCA of astrocyte induction (GFAP); assay type: cell-based, mouse; conditions: 72 h, in vitro
Method: For the astrocyte experiments in FIG. 3C, the experimental setup was identical to the PLP1-based primary validation screen except plates were stained for GFAP (DAKO, Z0334; 1:5,000). BMP4 (R&D Systems; 50 ng ml^−1) and LIF (Millipore; 10^3 U ml^−1) were used as the positive control for astrocyte induction. Assay plates were imaged on the Operetta High Content Imaging and Analysis system and a set of 14×20 fields captured. Columbus Data Management and Analysis System software (PerkinElmer) was used to quantify the percentage of GFAP1 astrocytes in each well using a method similar to that developed for oligodendrocytes.

mouse OPCs = assay: OPC differentiation into MBP+ oligodendrocytes; assay type: cell-based; conditions: for number of MBP+ oligodendrocytes by duration of treatment: 24, 48, 56 and 72 h; for number of MBP+ oligodendrocytes at 72 h by time of treatment start: treatment started at 0, 16, 24 or 48 h
Method: EpiSC-derived OPCs were seeded onto poly-D-lysine 96-well Viewplate or CellCarrier plates (PerkinElmer) coated with laminin (Sigma, L2020; 10 μgml^−1) using electronic multichannel pipetors. For the primary screen, 30,000 cells were seeded per well in screening medium (DMEM/F12 supplemented with N2 (R&D Systems), B-27 (Life Technologies), neurotrophin 3 (R&D Systems; 10 ng ml^−1), cAMP (Sigma; 50 μM), IGF-1 (R&D Systems; 100 ng ml^−1), noggin (R&D Systems; 100 ngml^−1)) and allowed to attach for 2 h before addition of drug. NIH Clinical Collection I and II drugs were added to assay plates with 0.1 ml pin replicators (Molecular Devices, Genetix; X5051), resulting in a final primary screening concentration of 5 μM. Thyroid-hormone-positive controls and DMSO vehicle controls were included in each assay plate. Cells were incubated under standard conditions (37° C., 5% CO2) for 3 days and fixed with 4% paraformaldehyde (PFA) in phosphate buffered saline (PBS). Fixed plates were permeabilized with 0.1% Triton X-100 and blocked with 10% donkey serum (v/v) in PBS for 2 h. Cells were labelled with MBP antibodies (Abcam, ab7349; 1:100) for 1 h at room temperature (˜22° C.) followed by detection with Alexa Fluorconjugated secondary antibodies (1:500) for 45 min. Nuclei were visualized by DAPI staining (Sigma; 1 μgml^−). All plates for the primary screen were processed and analyzed simultaneously to eliminate variability.
For the 5 μM in vitro screen, stained plates were imaged on the Opera confocal imaging system (PerkinElmer) and a set of 24×10 fields were collected from each well, resulting in an average of 10,000 cells being scored per well. For the dose-response (6.7 μM, 5 μM, 3.3 μM, 1.7 μM, 666 nM, 500 nM, and 333 nM) in vitro assays, plates were imaged on the Operetta High Content Imaging and Analysis system (PerkinElmer) and a set of 14×20 fields captured from each well resulting in an average of 3,300 cells being scored per well. […] Each traced nucleus region was then expanded by 50% and cross-referenced with the mature myelin protein (MBP or PLP1) stain to identify oligodendrocyte nuclei, and from this the percentage of oligodendrocytes was calculated. Processes emanating from oligodendrocyte nuclei were identified using the CSIRO2 analysis module within a custom Acapella script. Maximum mean process length (denoted ‘process length’) and mean process intensity (denoted ‘process intensity’) were generated on a per well basis. For the 5 μM in vitro screen, values were calculated and normalized to 100 for thyroid hormone (positive control)-treated wells and to 0 for DMSO(vehicle)-treated wells, on a per plate basis.

[1] = test system: corpus callosum of mouse pups; assay: Developmental myelination in mouse pups; assay type: in vivo; conditions: for number of CC1+ oligodendrocytes in the lateral corpus callosum / portion/length of corpus callosum covered by MBP+ fibres: pups treated daily for 4 days from postnatal day 2, clobetasol 2 mg/kg, miconazole 10 mg/kg i.p., vs vehicle
Excerpt: On postnatal day 6 the pups were anaesthetized using ketamine and xylazine and euthanized by transcardial perfusion with 4% PFA. Tissue was fixed overnight in 4% PFA, equilibrated in 30% sucrose, and embedded in OCT. Sections (20 μm) were cut and processed for CC1 and MBP immunohistochemistry. ImageJ was then used to count and measure area of the corpus callosum as well as measure the extent of the corpus callosum length covered by MBP1 processes. Eight coronal sections containing corpus callosum rostral to the hippocampus from at least three animals per group were used for these analyses. To quantitate extent of MBP in the corpus callosum, a line was drawn through the centre of the corpus callosum from the lateral tip to the dorsal most extent of MBP expression in the corpus callosum. The length of this line was measured and then the dorsal-most point of the line was extended to the dorsal tip of the corpus callosum and measured to yield the length of the lateral callosum. The two numbers were divided to get the MBP/corpus callosum proportion. A two-tailed t-test was used to compare drug—with vehicle-treated groups.

[2] = test system: 414 different kinase isoforms; assay: Kinase profiling (LanthaScreen, Z'-LYTE, Adapta); assay type: biochemical; conditions: 414 kinase isoforms
Method: LanthaScreen, Z9-LYTE, and Adapta kinase assays were performed by Select Screen (Life Technologies). LanthaScreen Eu kinase assays were performed in Greiner low-volume 384-well plates. Assay buffer consisted of 50 mM HEPES pH 7.5, 0.01% BRIJ-35, 10 mM MgCl2, 1 mM EGTA. Each well consisted of this mixture: 4.0 μl of 4 μM test drug in assay buffer, 8 μl of 2× kinase/Eu antibody mixture, and 4 μl of 4×Alexa Fluor 647 tracer. Plates were incubated for 60 min at room temperature (˜22° C.), then Alexa Fluor 647 emission (665 nm) and Europium emission (615 nm) read on a fluorescent plate reader. Data were analysed by generating the emission ratio (665 nm/615 nm) for each test point and normalizing 0% to control wells with no known inhibitor and 100% to control wells with highest concentration of known inhibitor.
Z′-LYTE assays were performed in Corning, low volume 384-well plates. Assay buffer consisted of 50 mM HEPES pH 7.5, 0.01% BRIJ-35, 10 mM MgCl2, 1 mM EGTA. […] Coumarin emission (445 nm) and fluorescein emission (520 nm) were read on a fluorescent plate reader. Data were analysed by normalizing out background fluorescence then generating the emission ratio (445 nm/520 nm) for each test point. […]
Adapta assays were performed in Corning, low volume 384-well plates. […] Alexa Fluor 647 emission (665 nm) and europium emission (615 nm) were read on a fluorescent plate reader. […]

[3] = test system: PLP139-151- or MOG35-55-sensitized lymph node cells; assay: Ex vivo lymphocyte recall assays; assay type: cell-based, mouse
[4] = test system: muscarinic receptor subtypes (M1-M5); assay: Muscarinic receptor antagonism, GeneBLAzer or Tango cellular reporter assays; assay type: cell-based; conditions: 1 μM
Method: GeneBLAzer or Tango assays were performed to determine level of acetylcholine muscarinic receptor M1, M3, M5 (GeneBLAzer), M2 and […] (Tango) antagonism.

[5] = 2 mg/kg daily i.p., postnatal day 2-6

Structure (SMILES)	astrocyte formation from OPCs (OPCs)	number of MBP+ oligodendrocytes by duration of treatment (mouse OPCs)	number of MBP+ oligodendrocytes at 72 h by time of treatment start (mouse OPCs)	number of CC1+ oligodendrocytes in the lateral corpus callosum [1]	portion/length of corpus callosum covered by MBP+ fibres [1]	inhibition of kinase activity [2]	modulation of immune cell function ([3]; summary of immune cell survival and function assays)	inhibition of muscarinic receptor subtypes M1-M5 [4]	mortality of treated pups [1, 5]	sickness and body weight of treated pups [1, 5]	proliferation and secretion of cytokines by sensitized lymph node cells ([3]; 10^−9-10^−5 M)
Clc1ccc(COC(Cn2ccnc2)c2ccc(Cl)cc2Cl)c(Cl)c1 (stereo not drawn) [miconazole]	neither drug showed a significant impact on astrocyte formation	progressive, time-dependent increase	dependent on drug treatment within the first 24 h of differentiation	significant increase in the number of CC1^+ oligodendrocytes; also recorded: marked increase in the number of CC1-positive oligodendrocytes	significantly larger portion of the corpus callosum was populated by MBP^+ fibre tracts; also recorded: significant increase in the length of the corpus callosum covered with aligned MBP^+ fibres	Neither clobetasol nor miconazole inhibited any of the kinases tested	did not modulate immune cell function	Neither miconazole nor clobetasol inhibited any of the five muscarinic receptor subtypes			
C[C@H]1C[C@H]2[C@@H]3CCC4=CC(=O)C=C[C@]4(C)[C@@]3(F)[C@@H](O)C[C@]2(C)[C@@]1(O)C(=O)CCl [clobetasol]	neither drug showed a significant impact on astrocyte formation	progressive, time-dependent increase	dependent on drug treatment within the first 24 h of differentiation	significant increase in the number of CC1^+ oligodendrocytes; also recorded: marked increase in the number of CC1-positive oligodendrocytes	significantly larger portion of the corpus callosum was populated by MBP^+ fibre tracts; also recorded: significant increase in the length of the corpus callosum covered with aligned MBP^+ fibres	Neither clobetasol nor miconazole inhibited any of the kinases tested		Neither miconazole nor clobetasol inhibited any of the five muscarinic receptor subtypes	some animals of the cohort died before end of treatment	exhibited sickness on the basis of this treatment, with low body weight	altered naïve T-cell differentiation and both the proliferation and secretion of cytokines

From patent US10653691B2, “Method of promoting remyelination” (Case Western Reserve University, priority 2013, dated 2020)
